Reference: publication PMC5793121 (Toxins, 2018)
Like-named read-outs stand apart in the source and are kept apart here. No end group written: not given here.

Tests used:
[1] = for AUC(0 → t) / Cmax / T1/2: single, [125I]-Az, blood radioactivity, 5 animals per time point
Description: The pharmacokinetic study was performed using 163 male ICR mice. Four experimental groups with 40 animals in each were formed. Three intact mice were used as control animals. The animals of the first two experimental groups were intravenously injected with 0.25 and 0.50 mg/kg [^125I]-Az, respectively. The animals of the other two experimental groups were intramuscularly injected with 0.25 and 0.50 mg/kg [^125I]-Az, respectively. To estimate Az elimination rate, animal blood samples were taken from the orbital sinus 5, 15, 30, 60 min and 1, 2, 4 and 24 h after [^125I]-Az administration. The obtained blood samples were weighed. For each indicated time point, [^125I]-Az concentration was calculated as a mean value in blood samples of five animals. The radioactivity (cpm) in the blood samples was counted using a Wallac 1470 WIZARD® Gamma Counter (Perkin Elmer, Waltham, MA, USA). […] Radioactivity data (cpm) were re-calculated to the concentration of [^125I]-Az in the obtained blood samples. The specific pharmacokinetic parameters (AUC (0 → t), Cmax, T1/2) of [^125I]-Az were estimated.

in vivo = settings: male, ICR, mouse, in vivo
Description: (§1) Az acute toxicity was estimated for its intravenous (iv) and intramuscular (im) administration to male ICR mice in a stepwise procedure.
(§2) For the iv route of administration, 20 mice were randomly divided in 5 groups of 4 animals each. The animals of each group received a single dose of Az (0.3, 0.4, 0.5, 0.6, or 0.7 mg/kg, respectively) injected into the lateral tail vein at a volume of 1 mL/kg. For the im route of administration, first two experimental groups of 3 animals each were formed. Az at doses of 0.75 and 1.0 mg/kg, respectively, was injected into the quadriceps muscle of the thigh (quadriceps femoris muscle) of two mouse hind limbs at a volume of 0.5 mL/kg to each muscle. Then, five experimental groups of 5 animals each were formed. Az was injected into the quadriceps muscle of the thigh (quadriceps femoris muscle) of the two hind limbs of male ICR mice at doses of 0.8, 0.775, 0.75, 0.725 and 0.7 mg/kg. The injection volume to each limb was 1 mL/kg. Further, neurotoxic manifestations were recorded in animals at 5, 10, 20, 30, 60 and 90 min and 24 h after administration using the functional observation battery, the number of death was counted as well.
(§3) For the iv and im route of administration, the median lethal dose (LD50) was calculated using a probit analysis. For the im route of administration, the maximum tolerated dose was determined.
(§4) Rocuronium was administered intramuscularly at doses of 0.13 mg/kg (n = 1), 0.1 mg/kg (n = 4) and 0.08 mg/kg (n = 4) in the triceps of the forelimbs of male ICR mice (8–9 weeks old). Control animals were injected with saline (n = 4). The volume of administration was 0.5 mL/kg in each limb.

male ICR mice = experiment: in vivo
Description: as §1, §2, §3, §4

## DNWWPKPPHQGPRPPRPRPKP-NH2 [Az, azemiopsin]
[1]; depending on administration way (iv or im), mice
  excretion half-life: 15 to 40 min
[1]; im 0.25 mg/kg, male ICR mice
  AUC(0 → t): 328 ng·h/mL
  Cmax: 278 ng/mL
  T1/2: 18 min
[1]; im 0.50 mg/kg, male ICR mice
  AUC(0 → t): 622 ng·h/mL
  Cmax: 257 ng/mL
  T1/2: 40.8 min
[1]; intramuscular administration, 0.25 and 0.5 mg/kg, male ICR mice
  half-life T1/2: 20 to 40 min
[1]; iv 0.25 mg/kg, male ICR mice
  AUC(0 → t): 214 ng·h/mL
  Cmax: 517 ng/mL
  T1/2: 15.6 min
[1]; iv 0.50 mg/kg, male ICR mice
  AUC(0 → t): 542 ng·h/mL
  Cmax: 745 ng/mL
  T1/2: 17.4 min
In vivo; im
  LD50 at 24 h: 0.732 ± 0.13 mg/kg
  MTD at 24 h: 0.7 mg/kg
In vivo; iv
  LD50 at 24 h: 0.51 mg/kg
Male ICR mice; im 0.725 mg/kg
  time of death after administration: 19.7 ± 5.9 min
Male ICR mice; im 0.75 mg/kg
  time of death after administration: 28.8 ± 16.0 min
Male ICR mice; im 0.775 mg/kg
  time of death after administration: 15.8 ± 4.3 min
Male ICR mice; im 0.8 mg/kg
  time of death after administration: 12.2 ± 1.8 min
Male ICR mice; im dose of 0.3 mg/kg and lower (grip strength tests)
  toxicity signs: No toxicity signs
Male ICR mice; im, large doses
  time of appearance of visible toxic signs after administration: 5 to 7 min
  time of complete recovery from the toxic effect after administration: 24 h
Male ICR mice; intravenous administration, male ICR mice, probit analysis
  LD50: 0.51 ± 0.06 mg/kg
